# From patent US20030119903A1, “Use of trimebutine for treating pain” (priority 1999, published 2003)
# Like-named read-outs stand apart in the source and are kept apart here.
# What was measured:
# [1] = system: veratridine-induced glutamate release; test: veratridine-induced [3H]-glutamate release from rat spinal cord slices; conditions: for IC50: read-out: IC50, inhibition of veratridine-induced glutamate release
# [2] = system: sodium currents in DRG neurons; test: whole cell patch clamp, sodium currents in DRG neurons; assay type: cell-based, rat
# formalin induced pain = test: formalin-induced pain; conditions: for ED50: Rattus norvegicus, sc, read-out: ED50, formalin induced pain (licking time)
# [3] = system: streptozocin-induced hyperalgesia; test: streptozocin-induced diabetic rats, tail immersion test; assay type: in vivo, rat; conditions: 30 mg/kg s.c. single dose, 30 min or 60 min before test, 44° C.
# Text: FIG. 9: Effect of TMB in diabetic rats.
# Streptozocin is a selective pancreatic β-cell toxin, which has been used to induce experimental diabetes in laboratory animals (Tomlinson K. C. et al., 1992,). The resultant loss of endogenous insulin induced by streptozocin mimics the characteristics of type I, or insulin-dependent, diabetes. Streptozocin-induced diabetes has recently been described as a model of chronic pain in rats. It has been reported that streptozocin administration leads to mechanical, thermal, and chemical hyperalgesia as well as mechanical hypersensitivity (Courteix C. et al., 1993; Calcutt N. A. et al., 1996). The most common symptoms of diabetic neuropathy appear to be spontaneous burning pain and mechanical hypersensitivity in the feet or lower limbs.
# Test is carried out with male Sprague Dawley rats (Iffa-Credo) weighing 160-180 grams on arrival. […] Food and water are provided ad libidum.
# Animals are intraperitoneally injected with streptozocin 75 mg/kg. Control animals are given vehicle in the same conditions. Diabetes are confirmed once a week after injection by measurement of tail vein blood glucose levels with Boehriger glycemia test. […]
# The tail of the rat is immersed in a water bath at 44° C. […] Results are expressed as the mean+/−SEM and analysed by a Student's t test after an analysis of variance (Anova one way).
# [4] = system: PGE2-induced hyperalgesia; test: PGE2-induced hyperalgesia (Randall and Selitto's test)
# Method: Test is carried out with Sprague-Dawley male rats (100-120 grams) on arrival. They are housed 5 per cage and acclimated to the conditions of the animal room for 5 days under a 12/12 day/night cycle and a constant room temperature of 22° C. Food and water are provided ad libidum.
# A solution of PGE2 (1 mg/ml) is prepared as a stock solution in a 10% (v/v) alcohol in apyrogen sterile saline and stored at 4° C. for 4 days.
# A solution of PGE2 (1 μg/ml) is freshly prepared twice daily in sterile saline and 100 μl is injected subplantar into the left paw of rat, twice daily for 4 days. Using this protocol, hyperalgesia is present for at least a week following completion for 4 days of treatment.
# Hyperalgesia is measured by the Randall and Selitto's test (Randall and Setillo,1957) using an analgesimeter (Ugo Basile). The analgesimeter is basically a device which exerts a force that increases at constant rate. The force is applied to the animal's paw which is placed on a small plinth under a cone-shaped pusher. The operator depresses a pedal-switch to start the mechanism with exerts the force. The nociceptive threshold is defined as the force at which the rat withdraws its paw. The threshold is determined before and after treatment.
# % of antinociceptive activity is calculated as follows: [formula]
# [5] = system: unilateral peripheral mononeuropathy; test: rat mononeuropathy, vocalization threshold to paw pressure; conditions: for duration of the antinociceptive effect: (S)-Nor-TMB s.c., morphine i.v.
# [6] = system: sodium currents in GH3 cells; test: sodium currents in GH3 cells; assay type: cell-based, rat; conditions: read-out: IC50, sodium current block (summary statement)
# [7] = system: μ-, δ- and κ- opioid receptors; conditions: rat brain, guinea-pig and canine intestinal receptors; no subtype selectivity; cited from earlier work
# [8] = system: voltage-dependent Kv1.1 and Kv1.2 channels; test: two-electrode voltage clamp, potassium currents in Xenopus oocytes; conditions: 10 μM, Kv1.1 and Kv1.2 in Xenopus oocytes
# Method: (B) Potassium currents expressed in Xenopus oocytes. Superimposed current traces induced by 400 ms depolarizations at −40 to +20 mV (in 10 mV step from −80 mV).
# Two voltage-dependent K^+ channels are considered: the shaker-related Kv1.1 and Kv1.2 channels.
# The rat voltage-dependent rKv1.1 and rKv1.2 channels are expressed in Xenopus oocytes. […] The transcriptions are done using the Ambion Megascript (Ambion, USA) and the cRNAs are stored in water at 1 mg/ml. cRNAs injection in Xenopus oocytes is done at 2-4 ng/ml. Defolliculated oocytes are kept in ND96 medium supplemented with 0.1 U/ml gentamicin. The currents are recorded 1-6 days after injection.
# A two-electrode voltage clamp amplifier (Geneclamp 500, Axon Instruments) is used to record K^+ currents from Xenopus oocytes. The KCl (3M)-filled electrodes had tip resistance<1 MΩ. The oocytes are continuously superfused with a Ca^2+-free ND96 medium in order to abolish the large Ca^2+-activated Cl^− current present in these cells.
# [9] = volunteers, tablets of 900 mg trimebutine, oral
smiles,measurement,setting,value
"CC[C@@](COC(=O)c1cc(OC)c(OC)c(OC)c1)(NC)c1ccccc1 [(R)-Nor-TMB, (R) N-desmethyl trimebutine]",IC50,[1]; Rattus norvegicus,16.3 µM
"CCC(COC(=O)c1cc(OC)c(OC)c(OC)c1)(NC)c1ccccc1 (stereo not shown) [Nor-TMB, N-desmethyl trimebutine]","inhibition parameters (IC50, nH) compared with trimebutine",[2]; DRG neurons,very similar
same,"ED50, formalin induced pain (licking time)","formalin induced pain; s.c., 30 min before testing",17 mg/kg
same,IC50,"[1]; veratridine 40 μM, rat spinal cord slices",8.4 µM
"CC[C@](COC(=O)c1cc(OC)c(OC)c(OC)c1)(NC)c1ccccc1 [(S)-Nor-TMB, (S)-N-desmethyl trimebutine]",reaction time of tail withdrawal from hot water,[3],the same as in control (non diabetic) rats
same,inhibition of PGE2-induced hyperalgesia,[4]; 20 mg/kg s.c.,up to 89%
same,ED50,"[4]; Rattus norvegicus, sc, read-out: ED50, PGE2-induced hyperalgesia",7 mg/kg
same,antinociceptive effect compared with morphine 1 mg/kg i.v.,"[5]; 3 and 10 mg/kg s.c., amplitude and duration",superior to that of morphine
same,duration of the antinociceptive effect,[5],more than 90 min
same,dose from which the increase of vocalization pressure threshold is present,[5]; s.c.,≥ 1 mg/kg
same,"antinociceptive effect, contralateral paw","[5]; vocalization threshold, s.c.",only at the highest dose (10 mg/kg)
same,"antinociceptive effect, nerve-injured paw","[5]; vocalization threshold, s.c.",significant at all the three doses tested
same,IC50,[1]; Rattus norvegicus,6.3 µM
CC[C@@](COC(=O)c1cc(OC)c(OC)c(OC)c1)(c1ccccc1)N(C)C [(S)-Trimebutine],IC50,[1]; Rattus norvegicus,15.2 µM
"CCC(COC(=O)c1cc(OC)c(OC)c(OC)c1)(c1ccccc1)N(C)C.O=C(O)/C=C\C(=O)O (racemic) [trimebutine, 2-dimethylamino-2-phenylbutyl 3,4,5-trimethoxybenzoate hydrogen maleate]",blocking rate kon,[2],35-40 10^−3s^−1 μM^−1
same,unblocking rate koff,[2],29 10^−3s^−1
same,time constant of channel block,[2]; 10 μM,2.2 s
same,"τoff, time constant of recovery from block",[2]; n=6,34 ± 4 s
same,IC50,"[2]; read-out: IC50, best fit to Hill function (FIG. 4D legend)",0.69 µM
same,IC50,"[2]; read-out: IC50, sodium current block (dose-response curve, text)",1.05 ± 0.09 µM
same,IC50,"[2]; read-out: IC50, sodium current block (summary statement)",< 1 µM
same,IC50,[6],< 1 µM
same,activity at opioid receptors,[7],weak agonist activity
same,ED50,formalin induced pain,231 mg/kg
same,K+ current block,[8],23±6%
same,concentration at which inhibition of glutamate release is seen / significant,[1],higher than 60 μM
same,IC50,[1]; Rattus norvegicus,> 100 µM
same,time of maximal plasma concentration,[9],1 h
CN1CC[C@]23c4c5ccc(O)c4O[C@H]2[C@@H](O)C=C[C@H]3[C@H]1C5 [morphine],ED50,formalin induced pain,0.51 mg/kg
same,duration of the antinociceptive effect,[5],less than 60 min
same,effect on veratridine-induced glutamate release,[1]; up to 100 μM,inactive
CC[C@](COC(=O)c1cc(OC)c(OC)c(OC)c1)(c1ccccc1)N(C)C [(R)-Trimebutine],inhibition of PGE2-induced hyperalgesia,[4]; 100 mg/kg s.c.,57%
same,IC50,[1]; Rattus norvegicus,> 100 µM
CCCCN1CCCCC1C(=O)Nc1c(C)cccc1C (stereo not shown) [bupivacaine],IC50,[1]; Rattus norvegicus,8.2 µM
